The compounds below were run on peripheral blood mononuclear cells (PBMC) (assay: In Vitro Screening in PBMC - G-CSF protein expression). Details: PBMC Donor 1; 500 ng mRNA, 0.4 uL Lipofectamine 2000.
Assay type: cell-based, human
Source text: (§1) The supernatant was harvested and stored frozen until analyzed by ELISA to determine the G-CSF protein expression, and the induction of the cytokines interferon-alpha (IFN-α) and tumor necrosis factor alpha (TNF-α).
With `COc1cn([C@@H]2O[C@H](CO)[C@@H](O)[C@H]2O)c(=O)[nH]c1=O` [5-methoxyuridine] the “G-CSF Protein Expression” value was 2,964 pg/ml. In the case of `O=c1ccn([C@@H]2O[C@H](CO)[C@@H](O)[C@H]2O)c(=S)[nH]1` [2-thiouridine], the “G-CSF Protein Expression” value is reported as 932 pg/mL. In the case of `O=c1[nH]c(=S)ccn1[C@@H]1O[C@H](CO)[C@@H](O)[C@H]1O` [4-thiouridine], the “G-CSF Protein Expression” value is reported as 5 pg/mL.

Same assay, conditions: PBMC Donor 2; 500 ng mRNA
In the case of `COc1cn([C@@H]2O[C@H](CO)[C@@H](O)[C@H]2O)c(=O)[nH]c1=O` [5-methoxyuridine], the “G-CSF Protein Expression” value is reported as 1,832 pg/ml. For `O=c1ccn([C@@H]2O[C@H](CO)[C@@H](O)[C@H]2O)c(=S)[nH]1` [2-thiouridine], the “G-CSF Protein Expression” value was 1,000 pg/ml. For `O=c1[nH]c(=S)ccn1[C@@H]1O[C@H](CO)[C@@H](O)[C@H]1O` [4-thiouridine], the “G-CSF Protein Expression” value was 391 pg/mL.

Same assay, conditions: PBMC Donor 3; 500 ng mRNA
With `COc1cn([C@@H]2O[C@H](CO)[C@@H](O)[C@H]2O)c(=O)[nH]c1=O` [5-methoxyuridine] the “G-CSF Protein Expression” value was 1,800 pg/ml. `O=c1ccn([C@@H]2O[C@H](CO)[C@@H](O)[C@H]2O)c(=S)[nH]1` [2-thiouridine] was tested, and the “G-CSF Protein Expression” value was 600 pg/mL. For `O=c1[nH]c(=S)ccn1[C@@H]1O[C@H](CO)[C@@H](O)[C@H]1O` [4-thiouridine], the “G-CSF Protein Expression” value was 218 pg/mL.

Same assay, conditions: Table 47 naturally occurring; background about 110 pg/ml
`O=c1ccn([C@@H]2O[C@H](CO)[C@@H](O)[C@H]2O)c(=S)[nH]1` [2-thiouridine (s^2U)] was tested, and the “Protein (G-CSF; PBMC)” value was “+ (“+” means greater than 300 pg/ml G-CSF)”. In the case of `O=c1[nH]c(=S)ccn1[C@@H]1O[C@H](CO)[C@@H](O)[C@H]1O` [4-thiouridine (s^4U)], the “Protein (G-CSF; PBMC)” value is reported as “+/− (“+/−” means 150-300 pg/ml G-CSF)”.

The compounds below were run on peripheral blood mononuclear cells (PBMC), interferon-alpha (IFN-α) (assay: not given). Details: Table 47 naturally occurring; IFN-alpha, background about 70 pg/ml.
Assay type: cell-based, human
Source text: as §1
For `O=c1ccn([C@@H]2O[C@H](CO)[C@@H](O)[C@H]2O)c(=S)[nH]1` [2-thiouridine (s^2U)], the “Cytokines (G-CSF; PBMC)” value was “+ (“+” means greater than 100 pg/ml IFN-alpha)”. In the case of `O=c1[nH]c(=S)ccn1[C@@H]1O[C@H](CO)[C@@H](O)[C@H]1O` [4-thiouridine (s^4U)], the “Cytokines (G-CSF; PBMC)” value is reported as “++ (“++” means greater than 300 pg/ml IFN-alpha)”.

The compounds below were run on HeLa cells (assay: In vitro Screening in HeLa Cells - luciferase (RLU)). Details: Table 47 naturally occurring; *** = production seen in cell free translations.
Assay type: cell-based, human
Design: key to Protein (Luc; HeLa): the protein production of HeLa is judged by “+,” “+/−” and “−”; the protein production of HeLa is judged by “+,” “+/−” and “−”; the protein production of HeLa is judged by “+,” “+/−” and “−”
Experimental: The 2′Fluoro-modified mRNA were then transfected into HeLa cells to assess protein production in a cell context and the same mRNA were also assessed in a cell-free rabbit reticulocyte system. A control of unmodified luciferase (natural luciferase) was used for both transcription experiments, a control of untreated and mock transfected (Lipofectamine 2000 alone) were also analyzed for the HeLa transfection and a control of no RNA was analyzed for the rabbit reticulysates.
For the HeLa transfection experiments, the day before transfection, 20,000 HeLa cells (ATCC no. CCL-2; Manassas, Va.) were harvested by treatment with Trypsin-EDTA solution (LifeTechnologies, Grand Island, N.Y.) and seeded in a total volume of 100 ul EMEM medium (supplemented with 10% FCS and 1× Glutamax) per well in a 96-well cell culture plate (Corning, Manassas, Va.). The cells were grown at […] in 5% CO2 atmosphere overnight. […] Lipofectamine 2000 (LifeTechnologies, Grand Island, N.Y.) was used as transfection reagent and 0.2 ul were diluted in 10 ul final volume of OPTI-MEM. After […] of incubation at room temperature, both solutions were combined and incubated an additional 15 minute at room temperature. Then the 20 ul combined solution was added to the 100 ul cell culture medium containing the HeLa cells and incubated at room temperature. After 18 to 22 hours of incubation cells expressing luciferase were lysed with 100 ul of Passive Lysis Buffer (Promega, Madison, Wis.) according to manufacturer instructions. Aliquots of the lysates were transferred to white opaque polystyrene 96-well plates (Corning, Manassas, Va.) and combined with 100 ul complete luciferase assay solution (Promega, Madison, Wis.). The lysate volumes were adjusted or diluted until no more than 2 mio relative light units (RLU) per well were detected for the strongest signal producing samples and the RLUs for each chemistry tested are shown in Table 42. The plate reader was a BioTek Synergy H1 (BioTek, Winooski, Vt.). The background signal of the plates without reagent was about 200 relative light units per well.
To evaluate using of 2′fluoro-modified mRNA in combination with other modification a series of mRNA were transcribed using either wild-type T7 polymerase (non-fluoro-containing compounds) or using mutant T7 polymerases (fluyoro-containing compounds) as described in Example 86. All modified mRNA were tested by in vitro transfection in HeLa cells.
After 18 to 22 hours of incubation cells expressing luciferase were lysed with 100 ul of Passive Lysis Buffer (Promega, Madison, Wis.) according to manufacturer instructions. Aliquots of the lysates were transferred to white opaque polystyrene 96-well plates (Corning, Manassas, Va.) and combined with 100 ul complete luciferase assay solution (Promega, Madison, Wis.). The lysate volumes were adjusted or diluted until no more than 2 mio relative light units (RLU) per well were detected for the strongest signal producing samples and the RLUs for each chemistry tested are shown in Table 44. The plate reader was a BioTek Synergy H1 (BioTek, Winooski, Vt.). The background signal of the plates without reagent was about 200 relative light units per well.
In the case of `O=c1ccn([C@@H]2O[C@H](CO)[C@@H](O)[C@H]2O)c(=S)[nH]1` [2-thiouridine (s^2U)], the “Protein (Luc; HeLa)” value is reported as “−”.

Each compound was assayed against wild-type T7 polymerase (Escherichia phage T7, UniProt P00573) (assay: In Vitro Transcription with Wild-Type T7 Polymerase (transcription and capping yield)). Details: Table 47 naturally occurring; G-CSF mRNA in vitro transcription, Pass/Fail.
Chain of wild-type T7 polymerase (P00573 whole entry): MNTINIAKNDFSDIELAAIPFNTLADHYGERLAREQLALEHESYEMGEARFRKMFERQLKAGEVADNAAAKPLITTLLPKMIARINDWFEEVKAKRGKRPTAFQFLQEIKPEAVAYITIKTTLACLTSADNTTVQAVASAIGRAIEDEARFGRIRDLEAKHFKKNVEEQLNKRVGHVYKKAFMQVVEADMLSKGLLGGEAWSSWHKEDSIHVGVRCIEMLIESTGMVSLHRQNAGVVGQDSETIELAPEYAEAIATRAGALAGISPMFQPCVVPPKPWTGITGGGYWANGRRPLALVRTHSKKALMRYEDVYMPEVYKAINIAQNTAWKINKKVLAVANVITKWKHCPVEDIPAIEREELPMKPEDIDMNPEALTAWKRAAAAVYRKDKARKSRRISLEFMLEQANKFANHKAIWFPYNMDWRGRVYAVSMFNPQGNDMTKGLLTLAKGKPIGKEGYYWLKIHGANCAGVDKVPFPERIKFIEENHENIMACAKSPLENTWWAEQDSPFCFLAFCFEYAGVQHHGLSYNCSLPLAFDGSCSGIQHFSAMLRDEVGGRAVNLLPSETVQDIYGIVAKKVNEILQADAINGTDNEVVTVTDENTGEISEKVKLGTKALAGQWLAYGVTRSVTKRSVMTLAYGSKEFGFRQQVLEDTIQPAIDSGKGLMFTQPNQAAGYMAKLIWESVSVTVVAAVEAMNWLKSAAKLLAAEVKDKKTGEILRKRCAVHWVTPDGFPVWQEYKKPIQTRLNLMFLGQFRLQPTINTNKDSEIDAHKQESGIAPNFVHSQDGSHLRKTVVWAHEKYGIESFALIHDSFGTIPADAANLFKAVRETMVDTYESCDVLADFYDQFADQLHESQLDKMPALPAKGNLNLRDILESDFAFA
Experimental: The luciferase and G-CSF modified mRNA were also subjected to an enzymatic capping reaction and each modified mRNA capping reaction was evaluated for yield by spectrophometic measurement (OD260) and correct size assessed using bioanalyzer.
For `O=c1ccn([C@@H]2O[C@H](CO)[C@@H](O)[C@H]2O)c(=S)[nH]1` [2-thiouridine (s^2U)], the “IVT (G-CSF)” value was “Pass”. In the case of `O=c1[nH]c(=S)ccn1[C@@H]1O[C@H](CO)[C@@H](O)[C@H]1O` [4-thiouridine (s^4U)], the “IVT (G-CSF)” value is reported as “Pass”.

Same assay, conditions: Table 47 naturally occurring; luciferase mRNA in vitro transcription, Pass/Fail
`O=c1ccn([C@@H]2O[C@H](CO)[C@@H](O)[C@H]2O)c(=S)[nH]1` [2-thiouridine (s^2U)] was tested, and the “IVT (Luc)” value was “Pass”. `O=c1[nH]c(=S)ccn1[C@@H]1O[C@H](CO)[C@@H](O)[C@H]1O` [4-thiouridine (s^4U)] was tested, and the “IVT (Luc)” value was “Fail”.

These compounds were tested on HeLa cells (assay: G-CSF expression in HeLa cells (ELISA)). Details: Table 47 naturally occurring; *** = production seen in cell free translations.
Assay type: cell-based, human
Design: key to Protein (G-CSF; HeLa): the protein production of HeLa is judged by “+,” “+/−” and “−”; the protein production of HeLa is judged by “+,” “+/−” and “−”; the protein production of HeLa is judged by “+,” “+/−” and “−”
Experimental: (§2) To assess the activity of all our different chemical modifications in the context of a second open reading frame, we replicated experiments previously conducted using luciferase mRNA, with human G-CSF mRNA. […] The mutant T7 polymerase was obtained commercially (Durascribe® T7 Transcription kit (Cat. No. DS010925) (Epicentre®, Madison, Wis.).
(§3) The modified RNA in Tables 45 and 46 were transfected in vitro in HeLa cells or added to rabbit reticulysates (250 ng of modified mRNA) as indicated. […] In Table 45, “NT” means not tested.
For `O=c1ccn([C@@H]2O[C@H](CO)[C@@H](O)[C@H]2O)c(=S)[nH]1` [2-thiouridine (s^2U)], the “Protein (G-CSF; HeLa)” value was “+”. With `O=c1[nH]c(=S)ccn1[C@@H]1O[C@H](CO)[C@@H](O)[C@H]1O` [4-thiouridine (s^4U)] the “Protein (G-CSF; HeLa)” value was “+”.

Same assay, conditions: fully modified G-CSF mRNA transfected in HeLa cells, ELISA
In the case of `COc1cn([C@@H]2O[C@H](CO)[C@@H](O)[C@H]2O)c(=O)[nH]c1=O` [5-methoxyuridine], the “G-CSF protein (pg/ml) HeLa cells” value is reported as 1,715,909 pg/ml. `O=c1ccn([C@@H]2O[C@H](CO)[C@@H](O)[C@H]2O)c(=S)[nH]1` [2-thiouridine] was tested, and the “G-CSF protein (pg/ml) HeLa cells” value was 417,273 pg/ml. For `O=c1[nH]c(=S)ccn1[C@@H]1O[C@H](CO)[C@@H](O)[C@H]1O` [4-thiouridine], the “G-CSF protein (pg/ml) HeLa cells” value was 107,273 pg/ml.

These compounds were tested on rabbit reticulysates (assay: G-CSF expression in rabbit reticulysates (ELISA)). Details: 250 ng modified G-CSF mRNA in rabbit reticulysates.
Assay type: biochemical
Experimental: as §2, §3
`COc1cn([C@@H]2O[C@H](CO)[C@@H](O)[C@H]2O)c(=O)[nH]c1=O` [5-methoxyuridine] was tested, and the “G-CSF protein (pg/ml) Rabbit reticulysates cells” value was 201,750 pg/ml. For `O=c1ccn([C@@H]2O[C@H](CO)[C@@H](O)[C@H]2O)c(=S)[nH]1` [2-thiouridine], the “G-CSF protein (pg/ml) Rabbit reticulysates cells” value was 18,375 pg/ml. `O=c1[nH]c(=S)ccn1[C@@H]1O[C@H](CO)[C@@H](O)[C@H]1O` [4-thiouridine] was tested, and the “G-CSF protein (pg/ml) Rabbit reticulysates cells” value was 52,375 pg/ml.

From patent US20130123481A1, “MODIFIED NUCLEOSIDES, NUCLEOTIDES, AND NUCLEIC ACIDS, AND USES THEREOF” (MODERNA THERAPEUTICS, priority 2011, published 2013)
